Laboratory results published in patent US10902592B2, “Analysis of images of biological material” (Q-linea AB, priority 2016, dated 2021).

What was measured:
Type in all cases: cell-based
[1] = system: E. coli; assay: Microscopy of E. coli grown in presence of antibiotics (FIGS. 7a-d); conditions: for morphological change of the pathogen: E. coli grown for three hours in presence of the antibiotic, microphotographs
Description: (§1) FIGS. 7a to 7j show the effect of antibiotics on the morphology of various pathogens. The microphotographs in a) to d) show E. coli grown for three hours either a) in absence of any antibiotics, b) and c) in presence of the antibiotic ceftazidime in different concentrations, and d) or in presence of the antibiotic meropenem. It is clear that the morphological change is not only dependent on the type of antibiotics but is also dose dependent. […] The strain of E. coli shown in these Figures is meropenem sensitive. The microphotographs in e) to g) show P.aureginosa grown for three hours either e) in absence of any antibiotics, f) in presence of the antibiotic ceftazidime or g) in presence of the antibiotic meropenem. […] The P.aureginosa strain shown is meropenem sensitive. The microphotographs of h) to j) show P. mirabilis grown for three hours either h) in absence of any antibiotics, i) in presence of the antibiotic ceftazidime or j) in presence of the antibiotic meropenem. […] The P. mirabilis strain shown is meropenem sensitive.

[2] = system: P.aureginosa; assay: Microscopy of P.aureginosa grown in presence of antibiotics (FIGS. 7e-g); conditions: for morphological change of the pathogen: P.aureginosa grown for three hours in presence of the antibiotic, microphotographs
Description: as §1

[3] = system: P. mirabilis; assay: Microscopy of P. mirabilis grown in presence of antibiotics (FIGS. 7h-j); conditions: for morphological change of the pathogen: P. mirabilis grown for three hours in presence of the antibiotic, microphotographs
Description: as §1

Row | Compound | morphological change of the pathogen [1] | sensitivity of the strain shown to the antibiotic ([1]; E. coli strain shown in the Figures) | morphological change of the pathogen [2] | sensitivity of the strain shown to the antibiotic ([2]; P.aureginosa strain shown) | morphological change of the pathogen [3] | sensitivity of the strain shown to the antibiotic ([3]; P. mirabilis strain shown)
1 | C[C@@H](O)[C@H]1C(=O)N2C(C(=O)O)=C(S[C@@H]3CN[C@H](C(=O)N(C)C)C3)[C@H](C)[C@H]12 [meropenem] | “swelling” of the pathogen | sensitive | the same morphological change occurs | sensitive | the same morphological change occurs | sensitive
2 | CC(C)(O/N=C(\C(=O)N[C@@H]1C(=O)N2C(C(=O)[O-])=C(C[n+]3ccccc3)CS[C@H]12)c1csc(N)n1)C(=O)O [ceftazidime] | thread-like change in morphology | – | “cluster threads” instead of individual threads | – | a combination of “swelling” and threads | –
